The values that follow come from US4814336A, “Method of treating a vascular obstructive lesion resulting from restricted blood circulation” (CHINOIN Gyogyszer es Vegyeszeti Termekek Gyara Rt, priority 1985, dated 1989).

The test system of assay [1] is patients suffering from cerebral obliterating vascular diseases. Nature of the assay: Clinical examination, cerebral obliterating vascular disease, symptoms. The assay is classed as in vivo, human patients. To be noted: 450 mg/day orally, 10 days. As for the experimental part:
(§1) The clinical examinations carried out on patients suffering from lower leg and cerebral obliterating vascular diseases gave the following results: 41 patients were treated for 10 days in a dose of 450 mg/day Depogen or Trental orally (beside 5 healthy controls).

Assay [2] deals with erythrocytes. Nature of the assay: In vitro filtrability of erythrocytes (filtration half-time), statements on both erythrocyte types. It is filed as cell-based, human. To be noted: for filtrability of the erythrocytes (result in words): FIGS. 1 and 2, T1/2 decreased. As for the experimental part: (§2) For the examination of the in vitro filtrability of the erythrocytes the method of Teitel (Nouv. Rev. Franc. Haematol. 7. 195 (1967)) was used where the filtration rate of concentrated erythrocyte suspension was measured. In the test fresh, normal erythrocytes, fresh in hyperosmotic solution shrunken erythrocytes and erythrocytes stored in CPD blood-conserving solution contracted for 30 days at +4° C. were used. The results are given in FIGS. 1 and 2 (the filtrability of the contracted erythrocytes and that of the erythrocytes stored for 30 days were given as the % of the filtrability of the control fresh, normal erythrocytes.)
(§3) The effect depends in the case of both drugs on the doses. The optimal effect may be achieved with Depogen in lower concentration interval (0.5 to 1.5 μumol) than in case of Trental (5 to 10 μumoles).

The subject of assay [3] is erythrocytes of patients with lower leg and cerebral obliterating vascular diseases. Nature of the assay: Erythrocyte filtrability (T1/2) of patients with lower leg and cerebral obliterating vascular diseases after 10 days treatment. The assay is classed as in vivo, human patients. To be noted: 450 mg/day orally; for T1/2 average of erythrocyte filtration after treatment: before treatment 18.15 min, healthy control 8.7 min. As for the experimental part:
as §1

Assay [4] concerns extremital vascular resistence. The settings on record: patients, doses up to 300 mg/day; cited from earlier work.
For assay [5], the system named is patients suffering from lower leg obliterating vascular diseases. Nature of the assay: Clinical examination, lower leg obliteration. It is filed as in vivo, human patients. To be noted: 450 mg/day orally, 10 days; Depogen compared with Trental. As to the method: as §1
Assay [6] deals with patients suffering from cerebral obliterating vascular diseases. Put plainly: EEG examination. To be noted: 450 mg/day orally, 10 days; for EEG deteriorated (number of patients) / EEG improved (number of patients) / EEG unchanged (number of patients): total 9 (Trental), 8 (Depogen). The assay is classed as in vivo, human patients. As to the method:
as §1

Assay [7] has the same test system. Nature of the assay: ECHO examination. It is filed as in vivo, human patients. The settings on record: 450 mg/day orally, 10 days; for ECHO deteriorated (number of patients) / ECHO improved (number of patients) / ECHO unchanged (number of patients): total 9 (Trental), 8 (Depogen). As to the method: as §1
Assay [8] relates to contracted (shrunken) erythrocytes. Put plainly: In vitro filtrability (filtration half-time T1/2) of contracted (shrunken) erythrocytes, method of Teitel. The assay is classed as cell-based, human. To be noted: from ID50. As to the method:
FIG. 1 is a set of two graphs in which the filtration half-times (T1/2) for contracted (shrunken) erythrocytes are plotted along the Y-axis as a percentage of the filtration half-time for normal erythrocytes (control) against doses of respectively Trental and Depogen.
as §2, §3

The test system of assay [9] is erythrocytes stored for 30 days. Nature of the assay: In vitro filtrability (filtration half-time T1/2) of erythrocytes stored for 30 days, method of Teitel. It is filed as cell-based, human. To be noted: from ID50. As for the experimental part:
FIG. 2 is a set of two graphs in which the filtration half-time (T1/2) for erythrocytes stored for 30 days are plotted along the Y-axis as a percentage of the filtration half-time for normal erythrocytes (control) against doses of respectively Trental and Depogen.
as §2, §3

Assay [10] deals with erythrocytes. To be noted: Angiology 36, 4, 226-234 (1985); cited from earlier work.

With `CCOc1ccc(CC2=NCCc3cc(OCC)c(OCC)cc32)cc1OCC` [Depogen, 1-(3',4'-diethoxybenzyl)-6,7-diethoxy-3,4-dihydroisoquinolinium-theophyllin-7-acetate], the “effect in cerebral vascular disease, symptoms” value in assay [1] was “the symptoms have decreased”. Further, in the assay on erythrocytes [2] (in vitro), the “filtrability of the erythrocytes (result in words)” value was “increase the filtrability of the erythrocytes significantly”. In the assay with erythrocytes [2] (in vitro, concentration for the half-maximal effect), the “times lower concentration exerting the same effect as Trental” value fell in the range of 10 to 25 times. Besides, the “optimal effect on filtrability, concentration interval” value in the assay with erythrocytes [2] (in vitro, Depogen) was 0.5 to 1.5 μumol. Moreover, the “filtrability of pathological human erythrocytes (result in words)” value with erythrocytes [2] (proved by both ex vitro and in vivo tests) is reported as “increases the filtrability of the pathological human erythrocytes significantly”. In assay [3], the “filtrability of the erythrocytes after treatment (result in words)” value was “the filtrability of the erythrocytes has been normalized” and the “T1/2 average of erythrocyte filtration after treatment” value was 9.53 min. Further, the “peripheral vasodilating effect and extremital vascular resistence” value in [4] was “has a peripheral vasodilating effect and decreases the extremital vascular resistence”. The “effect in lower leg obliteration” value in [5] was “the two drugs have the same effect”. Also, in assay [6], the “EEG improved (% of patients)” value was determined as 87.5%, the “EEG unchanged (% of patients)” value is 12.5%, the “EEG deteriorated (number of patients)” value was 0 and the “EEG improved (number of patients)” value worked out at 7. The “EEG unchanged (number of patients)” value in [6] amounted to 1. Further, in assay [7], the “ECHO improved (% of patients)” value came out at 12.5%, the “ECHO unchanged (% of patients)” value amounted to 87.5%, the “ECHO deteriorated (number of patients)” value was 0 and the “ECHO improved (number of patients)” value came out at 1. In addition, the “ECHO unchanged (number of patients)” value in [7] was 7. For the same compound, in assay [8], the “Rel. activity Depogen/Trental” value was found to be 16.3. Besides, the “Rel. activity Depogen/Trental” value in assay [9] is recorded as 31.6.
Turning to `CC(=O)CCCCn1c(=O)c2c(ncn2C)n(C)c1=O` [Trental, 3,7-dihydro-3,7-dimethyl-1--(5-oxohexyl)-1H-purine-2,6-dione, reference compound], the “filtrability of the erythrocytes (result in words)” value in the assay with erythrocytes [2] (in vitro) is given as “increase the filtrability of the erythrocytes significantly”. Also, in the assay with erythrocytes [2] (in vitro, Trental), the “optimal effect on filtrability, concentration interval” value was 5 to 10 μumoles. Besides, in assay [3], the “filtrability of the erythrocytes after treatment (result in words)” value is listed as “the treatment was also in this case successful” and the “T1/2 average of erythrocyte filtration after treatment” value is on record as 12.1 min. For the same compound, the “effect in lower leg obliteration” value in assay [5] was “the two drugs have the same effect”. In [6], the “EEG improved (% of patients)” value was 44.5%, the “EEG unchanged (% of patients)” value was 55.5%, the “EEG deteriorated (number of patients)” value is listed as 0 and the “EEG improved (number of patients)” value was found to be 4. The “EEG unchanged (number of patients)” value in assay [6] stood at 5. Moreover, in assay [7], the “ECHO unchanged (% of patients)” value came to 100%, the “ECHO deteriorated (number of patients)” value turned out to be 0, the “ECHO improved (number of patients)” value was 0 and the “ECHO unchanged (number of patients)” value is recorded as 9. In the assay with erythrocytes [10], the “rheological parameters of the blood, plasticity of the erythrocytes” value was “improves some rheological parameters of the blood, first of all the plasticity of the erythrocytes”.
